The record followed here is PubChem BioAssay AID330 (DTP/NCI, 2004).

“And” between values parts separate entries of the source, which are not always exact repeats. Identical values can stand only once. Toxic doses and inconclusive results are not listed.

The subject of this assay is P388 leukemia ip, CD2F1 mice, survival T/C. The experiment in a line: NCI In Vivo Anticancer Drug Screen. Data for tumor model P388 Leukemia (intraperitoneal) in CD2F1 (CDF1) mice. Particulars: endpoint: median survival time, higher = longer survival. In short, it runs like this:
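Mice carrying the transplanted tumor received test compound or vehicle. Survival was recorded in each group, and the value is the treated-group measurement divided by that of the vehicle-treated control group.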

Setting [1] is: dose: 100.0 mg/kg/injection, schedule: Q04DX003 (ip), vehicle: saline.
The mark [2] stands for this setting: dose: 50.0 mg/kg/injection, schedule: Q01DX005 (ip), vehicle: saline with Tween-80.
[3] abbreviates: dose: 100.0 mg/kg/injection, schedule: Q01DX005 (ip), vehicle: saline with Tween-80.
Setting [4] is: dose: 200.0 mg/kg/injection, schedule: Q01DX005 (ip), vehicle: Klucel (hydroxypropylcellulose) (HPC).
The mark [5] stands for this setting: dose: 100.0 mg/kg/injection, schedule: Q04DX002 (ip), vehicle: Klucel (hydroxypropylcellulose) (HPC).
Setting [6] is: dose: 200.0 mg/kg/injection, schedule: Q04DX002 (ip), vehicle: Klucel (hydroxypropylcellulose) (HPC).
[7] abbreviates: dose: 200.0 mg/kg/injection, schedule: Q01DX005 (ip), vehicle: saline with Tween-80.
[8] abbreviates: dose: 100.0 mg/kg/injection, schedule: Q04DX002 (ip), vehicle: saline with Tween-80.

Consider `CC(C)=CCCC(C)(OC1OC(CO)C(O)C(O)C1O)C1CCC2(C)C1C(O)CC1C3(C)CCC(O)C(C)(C)C3C(OC3OC(CO)C(O)C(O)C3OC3OC(C)C(O)C(O)C3O)CC12C` (stereo unspecified) (tested in a mixture with another compound), for which the T/C is 101 % of control (dose: 18.75 mg/kg/injection, schedule: Q01DX009 (ip), vehicle: Klucel (hydroxypropylcellulose) (HPC)); 101 % of control (dose: 37.5 mg/kg/injection, schedule: Q01DX009 (ip), vehicle: Klucel (hydroxypropylcellulose) (HPC)); 100 % of control (dose: 75.0 mg/kg/injection, schedule: Q01DX009 (ip), vehicle: Klucel (hydroxypropylcellulose) (HPC)); 100 % of control (dose: 150.0 mg/kg/injection, schedule: Q01DX009 (ip), vehicle: Klucel (hydroxypropylcellulose) (HPC)).

Turning to `[Co+3].[NH-]CC[NH-].[NH-]CC[NH-].[NH-]CC[SH2+].[O-][Cl+3]([O-])([O-])O`, the T/C was 100 % of control under setting [1]; 100 % of control (dose: 200.0 mg/kg/injection, schedule: Q04DX003 (ip), vehicle: saline); 102 % of control (dose: 400.0 mg/kg/injection, schedule: Q04DX003 (ip), vehicle: saline); 99 % of control (dose: 800.0 mg/kg/injection, schedule: Q04DX003 (ip), vehicle: saline).

For `CCOC(CCC(CO)CO)OCC`, the T/C is 108 % of control (dose: 50.0 mg/kg/injection, schedule: Q01DX009 (ip), vehicle: suspension in saline); 112 % of control (dose: 100.0 mg/kg/injection, schedule: Q01DX009 (ip), vehicle: suspension in saline); 96 % of control (dose: 200.0 mg/kg/injection, schedule: Q01DX009 (ip), vehicle: suspension in saline).

Turning to `CCC(C)C(F)C(=O)O` (stereo unspecified), the T/C runs as follows: under setting [2], 98 % of control; under setting [3], 88 % of control.

With `COc1ccc(C=C2C(=O)N(c3ccccc3)C(=S)N(c3ccccc3)C2=O)cc1`, the T/C by setting is: (dose: 50.0 mg/kg/injection, schedule: Q01DX005 (ip), vehicle: Klucel (hydroxypropylcellulose) (HPC)) 94 % of control; (dose: 100.0 mg/kg/injection, schedule: Q01DX005 (ip), vehicle: Klucel (hydroxypropylcellulose) (HPC)) 90 % of control; under setting [4], 88 % of control.

`Cc1cn(CCCCCCCCCCCCOc2c3occc3cc3ccc(=O)oc23)c(=O)[nH]c1=O`: the T/C (dose: 50.0 mg/kg/injection, schedule: Q04DX002 (ip), vehicle: Klucel (hydroxypropylcellulose) (HPC)) was 96 % of control; the T/C under setting [5] is 98 % of control; the T/C under setting [4] is 92 % of control; the T/C under setting [6] was 95 % of control.

As for `O=C1Oc2ccccc2CC1C(=O)c1ccc(Cl)cc1` (stereo unspecified), the T/C runs as follows: under setting [2], 106 % of control; under setting [3], 103 % of control; under setting [7], 100 % of control.

Take `Fc1ccc(NP(=S)(Nc2ccc(F)cc2F)Nc2ccc(F)cc2F)c(F)c1`: the T/C is 101 % of control (dose: 25.0 mg/kg/injection, schedule: Q04DX002 (ip), vehicle: saline with Tween-80); 104 % of control (dose: 50.0 mg/kg/injection, schedule: Q04DX002 (ip), vehicle: saline with Tween-80); 102 % of control and 105 % of control under setting [8].

For the compound `CCCn1c(C)nc2c(N)cc(C(F)(F)F)cc21`, the T/C under setting [8] is 105 % of control; the T/C (dose: 200.0 mg/kg/injection, schedule: Q04DX002 (ip), vehicle: saline with Tween-80) is 100 % of control; the T/C (dose: 400.0 mg/kg/injection, schedule: Q04DX002 (ip), vehicle: saline with Tween-80) was 95 % of control.

Consider `CCc1cccc(C)c1NC(=O)CCc1nnc(N)n1N`, for which the T/C is 104 % of control under setting [2], 107 % of control under setting [3] and 94 % of control under setting [7].

In the case of `CN(C)CCCCCC[N+](C)(C)Cc1ccc(C[N+](C)(C)CCCCCC[N+](C)(C)Cc2ccc(CCl)cc2)cc1`, the T/C is, setting by setting: (dose: 3.12 mg/kg/injection, schedule: Q04DX003 (ip), vehicle: saline) 108 % of control; (dose: 6.25 mg/kg/injection, schedule: Q04DX003 (ip), vehicle: saline) 106 % of control; (dose: 12.5 mg/kg/injection, schedule: Q04DX003 (ip), vehicle: saline) 97 % of control.

As for `O=C(Nc1ccc(C(=O)Nc2ccc(C3=NCCCN3)cc2)cc1)Nc1ccc(C2=NCCCN2)cc1`, the T/C runs as follows: (dose: 6.25 mg/kg/injection, schedule: Q04DX003 (ip), vehicle: saline with Tween-80) 108 % of control; (dose: 12.5 mg/kg/injection, schedule: Q01DX009 (ip), vehicle: saline with Tween-80) 204 % of control; (dose: 25.0 mg/kg/injection, schedule: Q01DX009 (ip), vehicle: saline with Tween-80) 122 % of control; (dose: 25.0 mg/kg/injection, schedule: Q04DX003 (ip), vehicle: saline with Tween-80) 150 % of control; under setting [1], 90 % of control.

As to `CC(Sc1ccccn1)C(=O)c1ccccc1` (stereo unspecified), the T/C reads like this: under setting [2], 102 % of control; under setting [3], 109 % of control; under setting [7], 102 % of control.

`c1ccc2c(SCCCCCCCCCCCCSc3c4ccccc4nc4ccccc34)c3ccccc3nc2c1`: the T/C reads like this: (dose: 60.0 mg/kg/injection, schedule: Q01DX005 (ip), vehicle: Klucel (hydroxypropylcellulose) (HPC)) 104 % of control; (dose: 120.0 mg/kg/injection, schedule: Q01DX005 (ip), vehicle: Klucel (hydroxypropylcellulose) (HPC)) 98 % of control; (dose: 240.0 mg/kg/injection, schedule: Q01DX005 (ip), vehicle: Klucel (hydroxypropylcellulose) (HPC)) 90 % of control.

With `O=C(CCCCCS)NCCCCCCCCCCNC(=O)CCCCCS`, the T/C is, setting by setting: under setting [5], 97 % of control; under setting [6], 92 % of control; (dose: 400.0 mg/kg/injection, schedule: Q04DX002 (ip), vehicle: Klucel (hydroxypropylcellulose) (HPC)) 90 % of control.

For the compound `ClCc1ccc(Oc2ccc(CCl)cc2)cc1`, the T/C (dose: 12.5 mg/kg/injection, schedule: Q01DX009 (ip), vehicle: Klucel (hydroxypropylcellulose) (HPC)) is 120 % of control.

On to `O=C(O)Cn1/c(=N\N=C\c2ccccc2)sc2ccccc21`, for which the T/C by setting is: (dose: 100.0 mg/kg/injection, schedule: Q01DX001 (ip), vehicle: saline with Tween-80) 101 % of control; (dose: 200.0 mg/kg/injection, schedule: Q01DX001 (ip), vehicle: saline with Tween-80) 91 % of control; (dose: 400.0 mg/kg/injection, schedule: Q01DX001 (ip), vehicle: saline with Tween-80) 93 % of control.

Turning to `Cc1ccc(S(=O)(=O)C(CC(=O)CCN(C)C)c2ccccc2)cc1` (stereo unspecified), the T/C reads like this: (dose: 25.0 mg/kg/injection, schedule: Q04DX002 (ip), vehicle: saline) 100 % of control; (dose: 50.0 mg/kg/injection, schedule: Q01DX009 (ip), vehicle: saline) 96 % of control; (dose: 50.0 mg/kg/injection, schedule: Q04DX002 (ip), vehicle: saline) 103 % of control and 95 % of control; (dose: 100.0 mg/kg/injection, schedule: Q01DX009 (ip), vehicle: saline) 102 % of control; (dose: 100.0 mg/kg/injection, schedule: Q04DX002 (ip), vehicle: saline) 100 % of control; (dose: 200.0 mg/kg/injection, schedule: Q04DX002 (ip), vehicle: saline) 100 % of control.

As for `C1=C(c2ccccc2)N=C(c2nncc3ccccc23)C1(c1ccccc1)c1ccccc1`, the T/C was 101 % of control (dose: 100.0 mg/kg/injection, schedule: Q04DX003 (ip), vehicle: saline with Tween-80); 101 % of control (dose: 200.0 mg/kg/injection, schedule: Q04DX003 (ip), vehicle: saline with Tween-80); 96 % of control (dose: 400.0 mg/kg/injection, schedule: Q04DX003 (ip), vehicle: saline with Tween-80).

`Cc1ncc([N+](=O)[O-])n1CCOC(=O)c1ccc(Cl)cc1`: the T/C is 102 % of control (dose: 50.0 mg/kg/injection, schedule: Q01DX009 (ip), vehicle: Klucel (hydroxypropylcellulose) (HPC)); 100 % of control (dose: 100.0 mg/kg/injection, schedule: Q01DX009 (ip), vehicle: Klucel (hydroxypropylcellulose) (HPC)); 98 % of control (dose: 200.0 mg/kg/injection, schedule: Q01DX009 (ip), vehicle: Klucel (hydroxypropylcellulose) (HPC)).

For `COC(=O)c1ncn(C)c1O`, the T/C (dose: 60.0 mg/kg/injection, schedule: Q01DX005 (ip), vehicle: water) was 103 % of control; the T/C (dose: 120.0 mg/kg/injection, schedule: Q01DX005 (ip), vehicle: water) was 113 % of control; the T/C (dose: 240.0 mg/kg/injection, schedule: Q01DX005 (ip), vehicle: water) is 104 % of control.

Regarding `O=[C-]c1ccccc1[C-]=O.[I][Ni+2][I]`, the T/C runs as follows: (dose: 6.25 mg/kg/injection, schedule: Q01DX005 (ip), vehicle: saline) 94 % of control; (dose: 12.5 mg/kg/injection, schedule: Q01DX005 (ip), vehicle: saline) 94 % of control; (dose: 25.0 mg/kg/injection, schedule: Q01DX005 (ip), vehicle: saline) 110 % of control.
